Among the data in patent US12227480B1 (priority 2023, dated 2025) are MIC values, retold here.

The test system of this assay is Mycobacterium tuberculosis H37Rv (ATCC: 25177). Briefly: Resazurin Microplate Assay (REMA), anti-tubercular activity, H37Rv strain. It is filed as cell-based. Particulars: 192 h, read-out: Anti-tubercular activity against Mycobacterium tuberculosis (MIC), H37Rv.

Broadly, the MIC is the smallest concentration in the dilution series that meets the test's criterion for growth inhibition. With `Cc1cc[n+](CC(=O)c2ccc(F)cc2)cc1.[Br-]` [Compound 3d, 1-(2-(4-Fluorophenyl)-2-oxoethyl)-4-methylpyridin-1-ium bromide], the MIC turned out to be 8 µg/mL.
